Experimental data from US20260232579A1 (Aspire Biopharma, Inc., priority 2023, published 2026).

Legend:
[1] = Determination of pH of aspirin samples (USP <791>); assay type: physicochemical; conditions: 1861.9 mg sample in 5.0 mL USP water, stirred 15 minutes
Experimental: Determination of the pH of a solution of a formulation disclosed herein may be accomplished by methods known in the art, e.g., as described herein and by standard protocols, e.g., by protocols described in the United States Pharmacopoeia, Chapter <791>.
The pH values of aspirin API and batch nos. F22006-001, F22006-004, F22006-002, F22006-003, and F22006-005 were determined using standard protocols as described in the United States Pharmacopoeia, Chapter <791>. […] The pH of the mixture was measured using a Mettler Toledo pH meter.

[2] = Henderson-Hasselbalch calculation of ionized to non-ionized aspirin at saliva pH
From the text: In its conjugate base/ionized form, aspirin is unable to efficiently cross the mucous membranes in the oral cavity to enter the blood stream, rendering oral mucosal (e.g., sublingual and/or buccal) delivery of ionized aspirin inefficient. The pH of saliva in the oral cavity ranges between 6.2 to 7.6 (Dawood, […]. Saliva and Oral Health. Int. J. Adv. Res. Biol. Sci. 2018, 5, 1-45) depending on the individual, with an average pH of 6.7. The Henderson-Hasselbalch equation, represented by Equation 2 below, provides the ratio of conjugate base to acid at a given pH of an acid having a given pKa. […] Exemplary calculations are provided below. Using the lower saliva pH limit of 6.2 in equation 1: Using the upper saliva pH limit of 7.6 in equation 1: […]

CC(=O)Oc1ccccc1C(=O)O [Aspirin, 2-acetoxybenzoic acid]
pH [1]: 2.62
ionized aspirin molecules for every one molecule of non-ionized aspirin ([2]; average saliva pH value of 6.7, pKa […]): 1584
ionized aspirin molecules for every one molecule of non-ionized aspirin ([2]; lower saliva pH limit of 6.2, pKa […]): 501
ionized aspirin molecules for every one molecule of non-ionized aspirin ([2]; upper saliva pH limit of 7.6, pKa […]): 12589
